Test results as given in the supplement of paper PMC10307832.

What was measured:
Experiment in all cases: relative viability (nuclei count vs DMSO), 5 days (fraction); higher = more cells survive
Wnt-C59 + Bortezomib = compound: CC1=NC=CC(=C1)C2=CC=C(C=C2)CC(=O)NC3=CC=C(C=C3)C4=CN=CC=C4 [Wnt-C59] + CC(C)C[C@H](NC(=O)[C@H](Cc1ccccc1)NC(=O)c1cnccn1)B(O)O [Bortezomib] (partner 0.002 µM)
Method in brief: (§1)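 A single step with final 0.05% Triton X-100, 1% formaldehyde and 1 ug/ml Hoechst fixed the cells and stained nuclei 5 days after treatment. Lung cancer cell lines in 1536-well plates had been treated by pin tool the day after seeding with one drug alone or a fixed anchor-drug dose plus five library-drug doses (not always all listed) in √10 steps, and nuclei were counted on 4× images. Relative viability is the ratio of nuclei in treated wells to nuclei in vehicle wells, taken as the median of duplicate plates.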

Wnt-C59 + Pemetrexed = compound: CC1=NC=CC(=C1)C2=CC=C(C=C2)CC(=O)NC3=CC=C(C=C3)C4=CN=CC=C4 [Wnt-C59] + Nc1nc2[nH]cc(CCc3ccc(C(=O)N[C@@H](CCC(=O)O)C(=O)O)cc3)c2c(=O)[nH]1 [Pemetrexed] (partner 0.2 µM)
Method in brief: as §1

Lapatinib + Tozasertib = compound: CS(=O)(=O)CCNCc1ccc(-c2ccc3ncnc(Nc4ccc(OCc5cccc(F)c5)c(Cl)c4)c3c2)o1 [Lapatinib] + Cc1cc(Nc2cc(N3CCN(C)CC3)nc(Sc3ccc(NC(=O)C4CC4)cc3)n2)n[nH]1 [Tozasertib] (partner 0.1 µM)
Method in brief: as §1

Wnt-C59 + Navitoclax = compound: CC1=NC=CC(=C1)C2=CC=C(C=C2)CC(=O)NC3=CC=C(C=C3)C4=CN=CC=C4 [Wnt-C59] + CC1(C)CCC(c2ccc(Cl)cc2)=C(CN2CCN(c3ccc(C(=O)NS(=O)(=O)c4ccc(N[C@H](CCN5CCOCC5)CSc5ccccc5)c(S(=O)(=O)C(F)(F)F)c4)cc3)CC2)C1 [Navitoclax] (partner 0.5 µM)
Method in brief: as §1

Cell Line	relative viability (Wnt-C59 + Bortezomib; first compound 0.001 µM)	relative viability (Wnt-C59 + Bortezomib; first compound 0.01 µM)	relative viability (Wnt-C59 + Bortezomib; first compound 0.03162 µM)	relative viability (Wnt-C59 + Bortezomib; first compound 0.1 µM)	relative viability (Wnt-C59 + Pemetrexed; first compound 0.001 µM)	relative viability (Wnt-C59 + Pemetrexed; first compound 0.01 µM)	relative viability (Wnt-C59 + Pemetrexed; first compound 0.03162 µM)	relative viability (Wnt-C59 + Pemetrexed; first compound 0.1 µM)	relative viability (Lapatinib + Tozasertib; first compound 0.02 µM)	relative viability (Lapatinib + Tozasertib; first compound 0.06325 µM)	relative viability (Lapatinib + Tozasertib; first compound 0.2 µM)	relative viability (Lapatinib + Tozasertib; first compound 0.6325 µM)	relative viability (Lapatinib + Tozasertib; first compound 2 µM)	relative viability (Wnt-C59 + Navitoclax; first compound 0.001 µM)	relative viability (Wnt-C59 + Navitoclax; first compound 0.01 µM)	relative viability (Wnt-C59 + Navitoclax; first compound 0.03162 µM)	relative viability (Wnt-C59 + Navitoclax; first compound 0.1 µM)
HOP-62	0.826	0.752	0.658	0.931	0.34	0.294	0.353	0.29	0.334	0.343	0.377	0.343	0.295	1.05	1.04	0.98	0.903
LC-2-ad	1.1	1.03	1.11	1.01	0.282	0.297	0.271	0.283	–	0.392	0.444	0.456	0.372	0.478	0.349	0.614	0.406
LCLC-97TM1	0.608	0.878	0.761	0.919	0.169	0.181	0.18	0.183	–	–	0.214	0.229	0.176	0.429	0.445	0.505	0.264
LOU-NH91	0.492	0.583	0.465	0.53	0.386	0.384	0.345	0.38	0.643	0.504	0.524	0.51	0.427	0.823	0.573	0.638	0.713
LU99A	1.11	1.08	1.07	1.1	0.205	0.195	0.178	0.195	0.281	0.293	0.239	0.195	0.216	0.779	0.933	0.822	0.772
LXF-289	0.969	0.965	0.99	1.02	0.897	0.827	0.916	0.91	0.178	0.155	0.177	0.173	0.168	0.999	0.912	0.929	0.948
NCI-H23	1.04	1.07	0.905	0.962	0.589	0.595	0.59	0.703	–	–	0.29	0.307	0.218	0.723	0.775	1.04	0.805
NCI-H322M	1.25	1.25	1.23	1.12	0.649	0.589	0.579	0.569	0.437	0.457	0.395	0.477	0.343	1.21	1.05	0.978	0.993
NCI-H441	0.364	0.236	0.593	0.682	0.277	0.225	0.258	0.276	–	0.551	0.491	0.462	0.454	0.709	1.06	0.743	0.517
NCI-H460	0.934	1.06	1.14	1.1	0.0664	0.0664	0.0652	0.0706	0.0815	0.298	0.0669	0.0896	0.06	0.968	1.18	1.11	1.04
NCI-H520	0.596	0.611	0.509	0.57	0.655	0.626	0.787	0.682	0.511	0.393	0.41	0.543	0.405	1.11	1.13	1.11	1.05
NCI-H596	0.837	1.08	1.12	–	0.533	0.569	0.483	0.479	–	0.741	0.856	0.779	0.567	1.04	0.802	1.05	1.05
NCI-H647	1.06	1.02	0.842	1.06	0.162	0.158	0.201	0.178	0.312	0.197	0.184	0.212	0.183	1.16	0.972	1.12	0.967
NCI-H838	0.905	0.655	0.739	0.754	0.235	0.24	0.267	0.242	0.235	0.257	0.256	0.258	0.221	1.24	1.18	1.18	1.16
NCI-H1355	1.18	1.05	1.23	1.1	1.04	1.03	1.03	0.96	–	0.416	0.498	0.494	0.26	1.01	0.876	0.905	0.88
NCI-H1437	0.576	0.433	0.551	0.395	0.36	0.299	0.31	0.331	0.388	0.411	0.378	0.347	0.367	1.16	1.03	1.16	1.09
NCI-H1650	0.21	0.219	0.205	0.219	0.354	0.442	0.38	0.422	0.354	0.325	0.399	0.288	0.168	1.35	1.41	1.27	1.1
NCI-H1651	0.928	0.985	0.97	0.913	0.577	0.618	0.648	0.558	0.541	0.622	0.508	0.443	0.325	1.07	1.02	1.11	0.955
